Laboratory results taken from a melting point compilation (Tetko et al.; mined from patent text by program, amines drawn as free bases though some values may be those of a salt).

| Compound | melting point |
| --- | --- |
| O=C(Nc1ccc(C(CC2CCCC2)C(=O)Nc2nccs2)cc1)c1ccncc1 (stereo not given) | 225 to 230 °C |
| COc1cc(C=NO)c2oc(-c3ccc(OC)c(F)c3)cc2c1 | 208 to 210 °C |
| O=C(O)CCCCN1C(=O)NC(=O)C1(c1ccccc1)c1ccccc1 | 207 °C |
| CCN(CC)N(C(C)=O)c1nc2cc3nc(N(C(C)=O)N(CC)CC)sc3cc2s1 | 224 to 225 °C |
| NS(=O)(=O)c1ccc(-c2cnn(CC(F)(F)F)c(=O)c2Oc2ccc(F)cc2)cc1 | 150 to 152 °C |
| CSc1c(C)c(-c2ccc(Cl)cc2Cl)nn1C | 65 to 66 °C |
| CNC(=O)OC1CC(C)(C)N(C)C(C)(C)C1 | 96 to 97 °C |
| Oc1ccc(-c2nc3cc(O)cc(Br)c3o2)cc1 | 139 to 141 °C |
| Cc1cc2oc(=O)c(NC(=O)Nc3ccc(F)cc3F)c(-c3ccccc3C)c2cc1C | 215 to 217 °C |
| CN(C)c1ccc(CC(CS)C(=O)Nc2cccc(C(=O)O)c2)cc1 (stereo not given) | 91 to 93 °C |
| CCn1c(=O)c(-c2cccs2)cc2cnc(Nc3ccccc3)nc21 | 223 to 225 °C |
| CCCN(CCC)C1=NC2C(Br)=NN(C)C2C(O)=N1 (stereo not given) | 186 to 187 °C |
| O=Cc1ccn2c1CCC2 | 58 °C |
| Cc1[nH]c(=O)ccc1-c1ccccc1 | 201 to 208 °C |
| O=C(/C=C/c1ccc2ccccc2n1)NO | 160 °C |
| COc1ccc(C(C)=Nc2ccc(C3=NNC(=O)CC3)cc2)c(O)c1 | 269 °C |
| CC(C)c1ccc(NC(=O)C2CCCc3ccccc32)cn1 (stereo not given) | 156 °C |
| NS(=O)(=O)c1cccc(NC(=O)c2cnn3c(C(F)F)cc(-c4ccc(C(F)(F)F)c(OCC(F)(F)F)c4)nc23)c1 | 241 °C |
| COCc1nc(N)nc(N)c1-c1cccc(Cl)c1Cl | 237 to 240 °C |
| COCCNS(=O)(=O)c1cc2[nH]c(=O)c(=O)[nH]c2cc1[N+](=O)[O-] | 320 to 321 °C |
| CCOC(=O)C(OC(=O)c1ccc(O)cc1)C(F)(F)F (stereo not given) | 83.8 °C |
| N#Cc1ccc(-c2ccc(OCCCCCC(=O)NO)cc2)cc1 | 129 °C |

| Compound | melting point |
| --- | --- |
| CC(C(=O)O)c1ccc(CC(Cl)(Cl)Cl)c(F)c1 (stereo not given) | 92 to 94 °C |
| CCn1nc2c(N)nc3ncccc3c2c1CC(C)C | 273 to 276 °C |
| N#Cc1ccc(NC(=O)NC(=O)c2c(F)cccc2F)c(Cl)c1Cl | 285 to 287 °C |
| CCC(=O)NCCCSc1ccncc1 | 50 to 51 °C |
| C=Cc1ncc2c(c1O)COC2C (stereo not given) | 237 to 238 °C |
| O=C(O)Cc1ccc2c(c1)C(=O)c1cc(Cl)ccc1CO2 | 169 to 171 °C |
| CCCS(=O)(=O)c1cc([C@H]2C[C@H](c3cc(OC)c(OC)c(OC)c3)CO2)cc(OC)c1OCc1ccccc1 (relative stereo) | 176 to 177 °C |
| Cc1ccc(S(=O)(=O)NCCCCSc2ccc(NS(C)(=O)=O)cc2)cc1 | 95 to 96 °C |
| CN(C)CCCCCCOc1ccc(C(=O)c2ccc(F)cc2)cc1 | 37 to 38 °C |
| CC(C)(C)OC(=O)c1cn(-c2cccnc2)cn1 | 81 to 82 °C |
| O=[N+]([O-])c1ccc(C(O)c2ccccn2)cc1 (stereo not given) | 114 to 115 °C |
| O=C(Nc1ccc(-n2nc(C(F)(F)F)cc2C2CC2)nc1)c1c(F)cccc1F | 157 to 162 °C |
| CC1CN(c2ccc(N)cc2Cl)C(=O)O1 (stereo not given) | 140 to 141 °C |
| C#Cc1ncn2c1[C@@H]1CCCN1C(=O)c1c(Cl)cccc1-2 | 324 to 325 °C |
| Cc1cnc2c(c1)C(O)C(Cc1ccc(C#N)cc1)CC2 (stereo not given) | 174 to 175 °C |
| CCC(=O)N1CCC(NC(=O)Nc2ccccc2Cl)CC1 | 150 to 157 °C |
| CC(C)n1c(=O)on(C(=O)n2oc(=O)n(C(C)C)c2=O)c1=O | 150 °C |
| COc1ccc(-c2[nH]nc3c2C(=O)c2c(NC(=O)C4CCCC4)cccc2-3)cc1 | 267 °C |
| Nc1ccn(CC2CC2)c(=O)n1 | 264 to 266 °C |
| Cc1cccc(C)c1C1C(=O)CC(C)(C)CC1=O | 177 to 186 °C |
| COc1cc(OC)nc(OC(C(=O)O)C2CCc3ccccc32)n1 (stereo not given) | 113 to 117 °C |
| CC(=O)Oc1c(C)ccc2c1NC(O)C1CCCN1C2=O (stereo not given) | 142 to 145 °C |

| Compound | melting point |
| --- | --- |
| CCCCCCCCCCCCc1ccc(S(=O)(=O)Nc2nnc(CC(=O)OCC)s2)cc1 | 108 to 109 °C |
| CCOC(=O)CN(CP(=S)(Oc1ccccc1)Oc1ccccc1)C(=O)C(F)(F)F | 50 to 52 °C |
| Cc1nnc(-c2cc(NCc3c(C)cccc3C)c3nc(C)n(C)c3c2)o1 | 256 to 257 °C |
| COc1nc(N)nc(-c2ccc(S(C)=O)cc2)c1-c1ccc(=O)n(C(C)C)n1 (stereo not given) | 127 to 130 °C |
| O=C(O)COc1c[nH]c(CCl)cc1=O | 150 to 155 °C |
| CC(C)(O)c1ccc(CC(=O)Nc2cccnc2Oc2cccc(C#N)c2)cc1 | 97 to 99 °C |
| S=C=Nc1ccc(Cl)c(Cl)c1 | 111 to 113 °C |
| CC(=O)C(=Cc1ccc(O)c(C(=O)O)c1)C(C)=O | 112 to 114 °C |
| CC(C)N(CCC(CCN(C(C)C)C(C)C)(C(N)=O)c1ccccc1)C(C)C | 102 to 103 °C |
| COc1cccc(C(C)(C)C(=O)O)c1 | 46 to 47 °C |
| COC(=O)c1ccc(Cl)cc1NC(=O)CSc1cccc(C)c1 | 75 to 77 °C |
| CCCCc1c[nH]c(S(C)=O)c1[N+](=O)[O-] (stereo not given) | 133 to 134 °C |
| COCCOC(=O)N=NC(=O)OCCOC | 39.9 to 40.4 °C |
| CC(C)C[C@H](NC(=O)OCc1ccccc1Cl)C(=O)N[C@@H](Cc1ccccc1)C(=O)CSCc1ccco1 | 80 to 85 °C |
| COC(=O)C1CN(Cc2cccnc2)C(=O)C(=C2SC=CS2)C1=O (stereo not given) | 111 to 114 °C |
| c1ccc(-c2ccc(-c3cccs3)s2)cc1 | 116 to 118 °C |
| CN1C(=O)CN(c2cccc(I)c2)NC1=O | 180 °C |
| NCCCP(=O)(O)C(F)F | 261 °C |
| Cc1c(O)ccc2c(=O)c(-c3ccc([N+](=O)[O-])cc3)coc12 | 345 °C |
| O=C(N1CC2CCC(C1)O2)C12CC3CC(CC(C3)C1)C2 | 134 to 136 °C |

Now from value to molecule:

| melting point | Compound |
| --- | --- |
| 127 to 129 °C | Cn1cnc(COc2nc3c(cc2C(C)(C)C)nnn3-c2ccccc2F)n1 |
| 141 to 148 °C | CN(Cc1cc2c(=O)c(C(=O)NCc3ccc(Cl)cc3)cn(C)c2o1)CC(CO)c1ccccc1 (stereo not given) |
| 180 °C | O=C1CCC(c2ccccc2)(c2ccccc2)C2CN(C(Cc3ccccc3)=NCc3ccccn3)CC12 (stereo not given) |
| 54 to 57 °C | CN1C(=O)C(c2ccc(OC(F)F)cc2)(c2cccc(CCCC(F)F)c2)N=C1N (stereo not given) |
| 133 to 135 °C | CN(CCCN1c2ccccc2CCc2ccccc21)c1ncccc1C(=O)O |
| 134 to 135 °C | CC(C)(C)c1ccc(Nc2nnc(Cc3ccc(O)nc3)c3ccccc23)cc1 |
| 145 to 147 °C | COc1cc(C(C)C)ccc1C1(NC(=O)C2CC2)C(=O)c2ccccc2C1=O |
| 154 to 156 °C | COc1ccc(C2c3c(C)c(N4CCC(c5ccc(OC)c(OC)c5)CC4)c(C)c(C)c3OC2(C)C)cc1 (stereo not given) |
| 198 to 201 °C | COc1ccccc1NS(=O)(=O)c1ccc(NC2=C(Cl)C(=O)c3ccccc3C2=O)cc1 |
| 116 to 118 °C | C=C(C)[C@H](C(=O)OC(c1ccccc1)c1ccccc1)N1C(=O)[C@@H]2N=C(c3ccccc3)O[C@@H]21 |
| 218 to 220 °C | CN1CCN(Cc2ccc(Nc3ccnc4cc(C(F)(F)F)ccc34)cc2)CC1 |
| 124 °C | O=C(OCc1ccccc1)C1=CCC2C(C(O)c3ccccc3)C(=O)N12 (stereo not given) |
| 157 to 160 °C | Clc1ccc(CSC(Cn2ccnc2)C23CC4CC(CC(C4)C2)C3)cc1 (stereo not given) |
| 157 to 158 °C | O=C(Nc1ccc(-c2ncon2)cc1)Oc1ccccc1 |
| 121 to 123 °C | COc1ccc2c(c1)C(=O)C(Cc1c[nH]c3ccccc13)CO2 (stereo not given) |
| 150 to 151 °C | COc1ccccc1C(=O)c1sc(NCCc2ccc(Cl)cc2)nc1N |
| 106 to 108 °C | Cn1nnnc1SCC1NCCc2cc(OCc3ccccc3)c(OCc3ccccc3)cc21 (stereo not given) |
| 122 to 126 °C | Cn1nc2ccccc2c1C(=O)NCC1CCN(CCc2ccc(F)cc2F)CC1 |

| melting point | Compound |
| --- | --- |
| 150 to 152 °C | CCC(CN1C(=O)c2ccccc2C1=O)n1cnc(-c2cccnc2)c1 (stereo not given) |
| 280 to 287 °C | CC(=O)Nc1cc(Oc2ccc3c(C(=O)Nc4ccc(N5CCS(=O)(=O)CC5)c(C(F)(F)F)c4)cccc3c2)ncn1 |
| 124 to 125 °C | O=C(O)C(=O)c1ccc(OCCOc2cccc3ccccc23)cc1 |
| 165 to 167 °C | O=S(=O)(Nc1cccc(OCCc2ccc3ccccc3c2)c1)c1cccc2ccccc12 |
| 160 to 162 °C | N#Cc1ccc(NC(=O)c2ccnc(SCc3ccc(F)cc3)c2)cc1 |
| 92.9 °C | CC(C)(C)C1=NN(c2ccc(S(=O)(=O)O)cc2)C(c2ccc(F)cc2)C1 (stereo not given) |
| 165 to 168 °C | CCc1nc2c(C)cc(C)nc2n1Cc1ccc(NCC2CCNCC2)cc1 |
| 145 to 147 °C | CC1(C)COc2cc3c(cc21)C1(CO3)CN(Cc2ccccn2)c2ccccc21 (stereo not given) |
| 187 °C | Nc1ccc(N2CCN(c3ccccc3OCC3COC(Cn4cncn4)(c4ccc(Cl)cc4Cl)O3)CC2)cc1 (stereo not given) |
| 102 to 104 °C | COc1ccc(C(CS(C)(=O)=O)N2C(=O)c3cccc(NC(C)=O)c3C2=O)cc1OCC1CC1 (stereo not given) |
| 156 to 158 °C | CC(OC(=O)Nc1ccc(-c2ncn(-c3ccc(C(F)(F)F)cc3)n2)cc1)c1ccc(C(F)(F)F)cc1 (stereo not given) |
| 202 °C | CN(CCNc1ccnc2c(NC(=O)c3c(Cl)cccc3Cl)cccc12)C(=O)n1ccnc1 |
| 79 °C | Cn1ccc2ccc(OCc3ccccc3)cc21 |
| 123 to 125 °C | C=CCn1cc(C2CCN(CCOc3ccccc3C(=O)O)CC2)c2ccccc21 |
| > 72 °C | CCOC(=O)c1c(N2CC3CC2CN3)c2cc(C)ccc2n(Cc2ccccc2)c1=O (stereo not given) |
| 186 to 189 °C | Cc1ccccc1-n1c(-c2cc(-c3ccc(Cl)cc3)c(N3CCOCC3)s2)nc2ccccc2c1=O |
| 195 to 198 °C | O=C(Nc1ccc(F)cc1)NC1CCN(C(=O)c2ccc(C(=O)O)cc2)CC1 |
| 135 to 139 °C | CCOc1ccc(-c2cc(C)cn2-c2ccc(S(N)(=O)=O)cc2)cc1 |
